Our source for the GI50 and TGI values is PubChem BioAssay (NCI).

Among the test systems are SNB-19 CNS; MDA-MB-231 breast; SN12C renal; SF-295 CNS; NCI-H522 lung; SK-OV-3 ovarian; SW-620 colon; SR leukemia; NCI-H460 lung; NCI-H23 lung.
Common to all, as to assay: DTP human tumour cell line panel, 48 h

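These data come from cells grown in 96-well plates and exposed to compound for 48 hours at five concentrations. Here, GI50 denotes the concentration required for 50% inhibition of growth. The concentration for full growth arrest is given as TGI.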 Where only a bound is given, the exact number is not on record here.

For `Nc1ccc(C(=O)c2ccc(N)c(Br)c2)cc1Br`, the GI50 (as a rule, the concentration at which growth is held to half of that of the control) in the assay on SNB-19 CNS was 0.637 µM; in the assay with MDA-MB-231 breast, 0.772 µM; in the assay on SN12C renal, 0.903 µM; in the assay with SF-295 CNS, 0.228 µM; in the assay with NCI-H522 lung, 0.256 µM; with SK-OV-3 ovarian, 0.425 µM. Also, the GI50 in the assay on SW-620 colon is 0.379 µM; in the assay on SR leukemia, 0.253 µM; with NCI-H460 lung it was 0.346 µM; in the assay on NCI-H23 lung, 1.16 µM. In addition, the TGI – broadly, the concentration at which net growth stops – in the assay on SNB-19 CNS is above 100 µM; in the assay with MDA-MB-231 breast it was above 47.1 µM; in the assay with SN12C renal, above 100 µM; in the assay on SF-295 CNS, 0.664 µM; with NCI-H522 lung, 0.623 µM; in the assay with SK-OV-3 ovarian, 32.6 µM. Moreover, the TGI was above 100 µM in the assay on SW-620 colon, 1.35 µM in the assay on SR leukemia, 5.76 µM in the assay on NCI-H460 lung and above 100 µM with NCI-H23 lung.

Regarding `OC(C1=C/C(=C\c2ccncc2)c2ccccc21)c1ccncc1` (stereo not given), the TGI is 69.2 µM with SNB-19 CNS; 23.4 µM in the assay with MDA-MB-231 breast; 35.4 µM in the assay on SN12C renal; 31.4 µM in the assay with SF-295 CNS; 31.1 µM with NCI-H522 lung; 31.8 µM with SK-OV-3 ovarian. Besides, the TGI in the assay on SW-620 colon was above 94.3 µM; in the assay on SR leukemia, 29.1 µM; with NCI-H460 lung, 28.2 µM; in the assay with NCI-H23 lung it was 39.2 µM.

Consider `CN(C)CCCN=C(N)N`, for which the TGI with SNB-19 CNS, in the assay on MDA-MB-231 breast, in the assay with SN12C renal, in the assay with SF-295 CNS, in the assay with NCI-H522 lung and in the assay on SK-OV-3 ovarian was above 100 µM throughout. Moreover, the TGI in the assay on SW-620 colon, in the assay on SR leukemia, with NCI-H460 lung and with NCI-H23 lung was above 100 µM in each case.

As for `CCN(CC)CCOc1ccc(Nc2ncc3cc(-c4ccc(O)cc4)c(=O)n(C)c3n2)cc1`, the GI50 in the assay with SNB-19 CNS was 8.57 µM; in the assay on MDA-MB-231 breast, 1.17 µM; in the assay on SN12C renal, 0.212 µM; in the assay on SF-295 CNS, 13.9 µM; in the assay with NCI-H522 lung it was 2.69 µM; with SK-OV-3 ovarian it was 0.0791 µM. In addition, the GI50 in the assay on SW-620 colon was 2.01 µM; with SR leukemia, 0.0662 µM; in the assay with NCI-H460 lung, 3.77 µM; with NCI-H23 lung it was 12.7 µM. For the same compound, the total growth inhibition concentration (TGI) came out at 27.5 µM in the assay on SNB-19 CNS; 7.36 µM with MDA-MB-231 breast; 21.2 µM in the assay with SN12C renal; 30.4 µM in the assay on SF-295 CNS; 27.1 µM in the assay with NCI-H522 lung; 24.8 µM in the assay with SK-OV-3 ovarian. For the same compound, the concentration for total growth inhibition (TGI) was found to be 4.01 µM in the assay on SW-620 colon, 2.76 µM in the assay with SR leukemia, 8.85 µM in the assay on NCI-H460 lung and 36.2 µM in the assay on NCI-H23 lung.
